The results in this text go back to patent US20230203041A1, “ANTAGONISTS OF THE ADENOSINE A2A RECEPTOR” (AdoRx Therapeutics Limited, priority 2020, published 2023).

Molecules are shown by their SMILES. Bounds are passed on as bounds.

The target in assay [1] is T1, human Adenosine A1 receptor (Homo sapiens, UniProt P30542).
T1 sequence (P30542 1-326): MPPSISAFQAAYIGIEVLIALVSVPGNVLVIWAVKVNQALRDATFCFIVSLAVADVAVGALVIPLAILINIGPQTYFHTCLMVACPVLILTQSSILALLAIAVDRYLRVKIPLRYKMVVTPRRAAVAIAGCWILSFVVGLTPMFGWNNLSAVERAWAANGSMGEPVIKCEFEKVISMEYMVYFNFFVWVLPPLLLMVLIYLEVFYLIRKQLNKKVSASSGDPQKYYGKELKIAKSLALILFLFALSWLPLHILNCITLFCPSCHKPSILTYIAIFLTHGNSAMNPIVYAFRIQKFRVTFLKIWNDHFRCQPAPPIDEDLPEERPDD
As to the kind of experiment: Adenosine receptor TR-FRET binding assay (CA200645 displacement), A1. On the technique in general: TR-FRET usually uses a lanthanide donor and a delayed reading to cut background.

Assay [2] addresses T2, human Adenosine A2a receptor (Homo sapiens, UniProt P29274).
T2 construct: expressed in transfected cells; host or cells: CHO cell membranes
As to the kind of experiment: Adenosine receptor TR-FRET binding assay (CA200645 displacement), A2a. The following applies: 100 nM CA200645, CHO cell membranes, 2 hours at room temperature.

Assay [3] deals with T3, human Adenosine A2b receptor (Homo sapiens, UniProt P29275).
T3 construct: expressed in transfected cells; host or cells: CHO cell membranes
T3 sequence (P29275 1-332): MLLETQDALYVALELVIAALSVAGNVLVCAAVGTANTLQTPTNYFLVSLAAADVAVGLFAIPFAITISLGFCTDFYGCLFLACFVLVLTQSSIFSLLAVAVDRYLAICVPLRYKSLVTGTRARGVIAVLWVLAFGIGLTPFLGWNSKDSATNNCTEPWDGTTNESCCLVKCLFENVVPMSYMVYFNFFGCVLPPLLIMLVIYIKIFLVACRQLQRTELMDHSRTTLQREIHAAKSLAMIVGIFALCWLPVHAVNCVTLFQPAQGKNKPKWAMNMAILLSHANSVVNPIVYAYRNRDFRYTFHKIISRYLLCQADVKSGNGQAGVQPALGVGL
Briefly: Adenosine receptor TR-FRET binding assay (CA200645 displacement), A2b. Particulars: 30 nM CA200645, CHO cell membranes, 2 hours at room temperature.

The target in assay [4] is T4, human Adenosine A3 receptor (Homo sapiens, UniProt P0DMS8).
T4 sequence (P0DMS8 1-318): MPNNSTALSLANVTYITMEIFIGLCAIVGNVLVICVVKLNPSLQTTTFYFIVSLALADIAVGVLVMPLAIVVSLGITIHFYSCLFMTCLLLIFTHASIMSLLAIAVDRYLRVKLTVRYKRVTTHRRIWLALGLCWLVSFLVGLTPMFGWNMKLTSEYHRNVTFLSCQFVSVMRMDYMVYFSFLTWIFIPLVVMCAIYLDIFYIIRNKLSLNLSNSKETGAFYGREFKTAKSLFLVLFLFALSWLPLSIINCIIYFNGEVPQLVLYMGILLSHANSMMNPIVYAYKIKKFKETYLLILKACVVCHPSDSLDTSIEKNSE
As to the kind of experiment: Adenosine receptor TR-FRET binding assay (CA200645 displacement), A3.

T2 sequence (P29274 whole entry): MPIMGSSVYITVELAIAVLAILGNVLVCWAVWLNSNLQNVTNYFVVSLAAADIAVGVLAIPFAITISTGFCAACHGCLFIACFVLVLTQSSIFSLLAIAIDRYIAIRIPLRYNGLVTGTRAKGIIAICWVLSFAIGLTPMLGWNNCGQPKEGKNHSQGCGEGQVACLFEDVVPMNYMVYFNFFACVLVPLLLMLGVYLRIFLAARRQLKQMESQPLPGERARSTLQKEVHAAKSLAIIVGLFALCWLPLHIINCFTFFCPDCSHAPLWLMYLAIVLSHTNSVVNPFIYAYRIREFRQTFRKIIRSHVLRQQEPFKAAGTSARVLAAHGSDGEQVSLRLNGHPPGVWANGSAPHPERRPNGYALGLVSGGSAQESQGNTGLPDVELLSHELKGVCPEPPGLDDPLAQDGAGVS

A word on the Ki: it is the equilibrium dissociation constant of an inhibitor or competing ligand from its target. A higher Ki goes with lower affinity. For `N#Cc1cccc(-c2nn3ccc(N)nc3c2-c2cn[nH]c2)c1` [Example 1.1], the Ki in assay [1] worked out at 95 nM; in assay [2] it was 147 nM; in assay [3], 239 nM.

Regarding `Cc1cc(-c2c(-c3cccc(C#N)c3)nn3ccc(N4CCOCC4)nc23)cc(Cl)n1` [Example 2.33], the values for the Ki in assay [2], in assay [4] and in assay [3] were 22.5 nM, 2000 nM and 212 nM, respectively.

Take `Cc1cc(-c2c(-c3cccc(C#N)c3)nn3ccc(NC(C)(C)C)nc23)cc(Cl)n1` [Example 3.2]: the values for the Ki in assay [2], in assay [4] and in assay [3] were 12 nM, above 1000 nM and 113 nM, respectively.

For the compound `Cc1cc(-c2c(-c3cccc(C#N)c3)nn3ccc(C(=O)N[C@H]4CCCNC4)nc23)cc(Cl)n1` [Example 7.4, 3-(2-Chloro-6-methyl-4-pyridyl)-2-(3-cyanophenyl)-N-[(3S)-3-piperidyl]pyrazolo[1,5-a]pyrimidine-5-carboxamide], the Ki was 4.1 nM in assay [2], above 1000 nM in assay [4] and 119 nM in assay [3].

Regarding `Cc1cc(-c2c(-c3cccc(C#N)c3)nn3ccc(C(=O)N[C@@H]4CCCNC4)nc23)cc(Cl)n1` [Example 7.7, 3-(2-Chloro-6-methyl-4-pyridyl)-2-(3-cyanophenyl)-N-[(3R)-3-piperidyl]pyrazolo[1,5-a]pyrimidine-5-carboxamide], the Ki in assay [2] was 14.9 nM; in assay [4] it was above 1000 nM; in assay [3] it was 12 nM.

With `Cc1cc(-c2c(-c3cccc(C#N)c3)nn3ccc(C(=O)O)nc23)cc(Cl)n1` [Example 9, 3-(2-Chloro-6-methyl-4-pyridyl)-2-(3-cyanophenyl)pyrazolo[1,5-a]pyrimidine-5-carboxylic acid], the Ki in assay [2] was 94 nM; in assay [4], above 1000 nM; in assay [3], 426 nM.

With `CCn1nccc1-c1c(-c2cccc(C#N)c2)nn2ccc(C(=O)NCC(C)(C)O)nc12` [Example 12, 2-(3-Cyanophenyl)-3-(2-ethylpyrazol-3-yl)-N-(2-hydroxy-2-methyl-propyl)pyrazolo[1,5-a]pyrimidine-5-carboxamide], the Ki in assay [2] was 145 nM; in assay [4] it was above 1000 nM; in assay [3], 240 nM.

In the case of `CCn1nc(C)cc1-c1c(-c2cccc(C#N)c2)nn2ccc(C(=O)NCC(C)(C)O)nc12` [Example 12.1, 2-(3-Cyanophenyl)-3-(2-ethyl-5-methyl-pyrazol-3-yl)-N-(2-hydroxy-2-methyl-propyl)pyrazolo[1,5-a]pyrimidine-5-carboxamide], the Ki in assay [3] was found to be 1570 nM.

As for `CCn1ncc(C)c1-c1c(-c2cccc(C#N)c2)nn2ccc(C(=O)NCC(C)(C)O)nc12` [Example 12.3, 2-(3-Cyanophenyl)-3-(2-ethyl-4-methyl-pyrazol-3-yl)-N-(2-hydroxy-2-methyl-propyl)pyrazolo[1,5-a]pyrimidine-5-carboxamide], the figures for the Ki in assay [4] and in assay [3] were above 1000 nM and 2310 nM, respectively.

`Cn1nccc1-c1c(-c2cccc(C#N)c2)nn2ccc(C(=O)NCC(C)(C)O)nc12` [Example 12.5, 2-(3-Cyanophenyl)-N-(2-hydroxy-2-methyl-propyl)-3-(2-methylpyrazol-3-yl)pyrazolo[1,5-a]pyrimidine-5-carboxamide]: the Ki in assay [1] stood at 2380 nM; in assay [3], 1510 nM.

In the case of `CC(C)(O)CNC(=O)c1ccn2nc(-c3cccc(C#N)c3)c(-c3cncs3)c2n1` [Example 12.7, 2-(3-Cyanophenyl)-N-(2-hydroxy-2-methyl-propyl)-3-thiazol-5-yl-pyrazolo[1,5-a]pyrimidine-5-carboxamide], the Ki was determined as 725 nM in assay [1], 27.4 nM in assay [2] and 792 nM in assay [3].

`Cc1cc(-c2c(-c3cccc(C#N)c3)nn3ccc(NCCO)nc23)cc(Cl)n1` [Example 19, 3-[3-(2-Chloro-6-methyl-4-pyridyl)-5-(2-hydroxyethylamino)pyrazolo[1,5-a]pyrimidin-2-yl]benzonitrile]: the Ki came to 16 nM in assay [1], 0.3 nM in assay [2] and 4 nM in assay [3].

With `Cc1cc(-c2c(-c3cccc(C#N)c3)nn3ccc(N[C@@H](C)CO)nc23)cc(Cl)n1` [Example 23.3], the values for the Ki in assay [2], in assay [4] and in assay [3] were 10.1 nM, above 1000 nM and 29 nM, respectively.

For `Cc1cc(-c2c(-c3cccc(C#N)c3)nn3ccc(O[C@H]4CCNC4)nc23)cc(Cl)n1` [Example 24.2, 3-[3-(2-Chloro-6-methyl-4-pyridyl)-5-[(3S)-pyrrolidin-3-yl]oxy-pyrazolo[1,5-a]pyrimidin-2-yl]benzonitrile], the Ki in assay [2] is 12.5 nM; in assay [4], above 1000 nM; in assay [3], 25 nM.

On to `Cc1cc(-c2c(-c3cccc(C#N)c3)nn3ccc(O[C@H]4CCCNC4)nc23)cc(Cl)n1` [Example 24.3, 3-[3-(2-Chloro-6-methyl-4-pyridyl)-5-[[(3S)-3-piperidyl]oxy]pyrazolo[1,5-a]pyrimidin-2-yl]benzonitrile], for which the Ki is 50.8 nM in assay [2], above 1000 nM in assay [4] and 91 nM in assay [3].

For `Cc1cc(-c2c(-c3cccc(C#N)c3)nn3ccc(N)nc23)cc(C#N)n1` [Example 26.3, 4-[5-Amino-2-(3-cyanophenyl)pyrazolo[1,5-a]pyrimidin-3-yl]-6-methyl-pyridine-2-carbonitrile], the Ki in assay [1] was 44 nM; in assay [2] it was 7.2 nM; in assay [3] it was 12 nM.

With `Fc1ccccc1-c1cc2nc(NCc3ccccc3)ccn2n1` [Example 36, N-Benzyl-2-(2-fluorophenyl)pyrazolo[1,5-a]pyrimidin-5-amine], the Ki is 175 nM in assay [2], above 1000 nM in assay [4] and 1780 nM in assay [3].

`N#Cc1c(-c2ccco2)nn2ccc(N3CCN(c4ccccc4)CC3)nc12` [Example 55, 2-(2-Furyl)-5-(4-phenylpiperazin-1-yl)pyrazolo[1,5-a]pyrimidine-3-carbonitrile]: the Ki was 43.1 nM in assay [2], above 1000 nM in assay [4] and 2370 nM in assay [3].

On to `Cc1cccnc1CNc1ccn2nc(-c3cccc(F)c3)cc2n1` [Example 66.1, 2-(3-Fluorophenyl)-N-[(3-methyl-2-pyridyl)methyl]pyrazolo[1,5-a]pyrimidin-5-amine], for which the figures for the Ki in assay [2], in assay [4] and in assay [3] were 72 nM, above 1000 nM and 1200 nM, respectively.

As for `Fc1cccc(-c2cc3nc(NCCc4ccccc4)ccn3n2)c1` [Example 66.2, 2-(3-Fluorophenyl)-N-(2-phenylethyl)pyrazolo[1,5-a]pyrimidin-5-amine], the results for the Ki in assay [2], in assay [4] and in assay [3] were 284 nM, 25 nM and 2160 nM, respectively.

`Fc1cccc(-c2cc3nc(NCc4nc5ccccc5[nH]4)ccn3n2)c1` [Example 66.3, N-(1H-Benzimidazol-2-ylmethyl)-2-(3-fluorophenyl)pyrazolo[1,5-a]pyrimidin-5-amine]: the Ki in assay [1] amounted to 102 nM; in assay [2] it was 492 nM; in assay [3], 2430 nM.

For the compound `Fc1cccc(-c2nn3ccc(NCc4ccccc4)nc3c2Cl)c1` [Example 67, N-Benzyl-3-chloro-2-(3-fluorophenyl)pyrazolo[1,5-a]pyrimidin-5-amine], the results for the Ki in assay [2], in assay [4] and in assay [3] were 120 nM, above 1000 nM and 7470 nM, respectively.

For `Fc1cccc(-c2nn3ccc(NCc4ccccc4)nc3c2Br)c1` [Example 69, N-Benzyl-3-bromo-2-(3-fluorophenyl)pyrazolo[1,5-a]pyrimidin-5-amine], the Ki in assay [2] is 141 nM; in assay [4], above 1000 nM; in assay [3], 10000 nM.

Take `Nc1ccn2nc(-c3cccc(F)c3)c(Br)c2n1` [Example 71, 3-Bromo-2-(3-fluorophenyl)pyrazolo[1,5-a]pyrimidin-5-amine]: the Ki in assay [2] was 197 nM; in assay [4], above 1000 nM; in assay [3], 3860 nM.

Regarding `O=C(O)c1c(-c2ccco2)nn2ccc(NCc3ccccc3)nc12` [Example 76, 5-(Benzylamino)-2-(2-furyl)pyrazolo[1,5-a]pyrimidine-3-carboxylic acid], the Ki was 2540 nM in assay [1], 116 nM in assay [2] and 2430 nM in assay [3].
